Target: HPK1 (Homo sapiens (Human), UniProt Q92918)
Assay: HPK1 Kinase Binding Assay
Conditions: LanthaScreen tracer 222 binding, active HPK1, 1 h at 25° C.
Experimental: A stock solution of 1 mM test compound was prepared in DMSO. The compound plate was prepared by 3-fold and 11-point serial dilutions. 0.1 μL of the compound in DMSO was transferred from the compound plate to the white 384 well polystyrene plates. The assay buffer contained 50 mM HEPES, pH 7.5, 0.01% Tween-20, 5 mM MgCl2, 0.01% BSA, and 5 mM DTT. 5 μL of 4 nM active HPK1 (SignalChem M23-11G) prepared in the buffer was added to the plate. The enzyme concentration given was based on the given stock concentration reported by the vender. […] After one hour incubation at 25° C., the plates were read on a PHERAstar FS plate reader (BMG Labtech). Ki values were determined.

HPK1, sequence (Q92918 1-346 limits assumed): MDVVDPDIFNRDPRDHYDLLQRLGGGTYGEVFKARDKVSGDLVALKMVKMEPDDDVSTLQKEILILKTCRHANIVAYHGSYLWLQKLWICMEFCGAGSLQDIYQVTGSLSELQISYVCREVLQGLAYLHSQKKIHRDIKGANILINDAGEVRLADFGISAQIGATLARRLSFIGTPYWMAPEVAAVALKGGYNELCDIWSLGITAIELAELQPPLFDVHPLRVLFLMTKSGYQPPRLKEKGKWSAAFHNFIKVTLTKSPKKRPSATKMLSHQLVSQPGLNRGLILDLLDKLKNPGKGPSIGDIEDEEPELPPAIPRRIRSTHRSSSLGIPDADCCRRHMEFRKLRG

Question: Which Ki does the source give for `COc1cccc(F)c1-c1nccc(C(=O)Nc2cc(F)c3nn(C)cc3c2N2CCC[C@@H]2CN)n1` (single isomer, unassigned; peak 1) [10, Peak 1] here?
Answer: < 100 nM
